Source: US10766914B2, “DNA alkylating agents” (OBI PHARMA, INC., priority 2015, dated 2020)

What follows are compounds tested on H460 cells (assay: Proliferation assay in H460 cells (2 hr exposure, AlamarBlue)). Settings: 2 hrs exposure, wash, 70 hrs growth, read-out: IC 50 in proliferation assay in H460 cells.
Type: cell-based, human
Procedure: In vitro proliferation data on the H460 […] human tumor cell line is reported above in the compound table.
Specifically, exponentially growing cells were seeded at a density of 4×10^3 cells per well in a 96 well plate and incubated at 37° C. in 5% CO2, 95% air and 100% relative humidity for 24 hours prior to addition of test compounds. Compounds were solubilized in 100% DMSO at 200 times the desired final test concentration. At the time of drug addition, compounds were further diluted to 4 times the desired final concentration with complete medium. Aliquots of 50 μl of compound at specified concentrations were added to microtiter wells already containing 150 μl of medium, resulting in the final drug concentration reported. After drug addition, the plates were incubated for an additional 2 hours at 37° C., 5% CO2, 95% air, and 100% relative humidity, then the drug was washed off and fresh medium was added and the plates were incubated for addition 70 hrs at 37° C., 5% CO2, 95% air and 100% relative humidity. At the end of this incubation, the viable cells were quantified using the AlamarBlue assay. The drug concentration resulting in growth inhibition of 50% (IC50) was calculated using Prism software (Irvine, Calif.), and the results were listed in the table.

With `CC(OP(=O)(N1CC1)N1CC1)c1ccc([N+](=O)[O-])c(Oc2cccc([N+](=O)[O-])c2)c1` (stereo not shown) [Compound 2942] the IC50 was 20 nM.

Same assay, conditions: Homo sapiens, NCI-H460, 2 hrs exposure, wash, 70 hrs growth, read-out: IC 50 in proliferation assay in H460 cells

Compared with `Nc1ccc(Oc2cc(COP(=O)(N3CC3)N3CC3)ccc2[N+](=O)[O-])cc1` [Compound 2896], `Cc1ccc(Oc2cc(COP(=O)(N3CC3)N3CC3)ccc2[N+](=O)[O-])cc1` [Compound 3031] is 10-fold lower in IC50: 100 nM for the first, 10 nM for the second. The second is the more potent here.

Going from `O=[N+]([O-])c1ccc(COP(=O)(N2CC2)N2CC2)cc1Oc1ccc(-c2ccncc2)cc1` [Compound 3050] to `O=[N+]([O-])c1ccc(COP(=O)(N2CC2)N2CC2)cc1Oc1ccc(-c2nccs2)cc1` [Compound 2899], the IC50 falls from 10 nM to 4 nM (2.5-fold).

`CC(OP(=O)(N1CC1)N1CC1)c1ccc([N+](=O)[O-])c(Oc2ccc3cccnc3c2)c1` (stereo not shown) [Compound 2957] and `O=[N+]([O-])c1ccc(COP(=O)(N2CC2)N2CC2)cc1Oc1ccc2cccnc2c1` [Compound 2970] are the same in IC50: 40 nM for the first, 40 nM for the second.

Compared with `CC(OP(=O)(N1CC1)N1CC1)c1ccc([N+](=O)[O-])c(Oc2ccc(C(F)(F)F)cc2)c1` (stereo not shown) [Compound 3036], `CC(OP(=O)(N1CC1)N1CC1)c1ccc([N+](=O)[O-])c(Oc2cccc(C(F)(F)F)c2)c1` (stereo not shown) [Compound 2871] is 7.5-fold higher in IC50: 4 nM for the first, 30 nM for the second.

`CNC(=O)c1ccccc1Oc1cc(C(C)OP(=O)(N2CC2)N2CC2)ccc1[N+](=O)[O-]` (stereo not shown) [Compound 2910] and `CC(OP(=O)(N1CC1)N1CC1)c1ccc([N+](=O)[O-])c(Oc2ccccc2C(=O)N(C)C)c1` (stereo not shown) [Compound 2885] are within 1.5-fold of each other in IC50: 3500 nM for the first, 3700 nM for the second.

Compared with `CNS(=O)(=O)c1ccc(Oc2cc(C(C)OP(=O)(N3CC3)N3CC3)ccc2[N+](=O)[O-])cc1` (stereo not shown) [Compound 2902], `CC(OP(=O)(N1CC1)N1CC1)c1ccc([N+](=O)[O-])c(Oc2ccc(NS(C)(=O)=O)cc2)c1` (stereo not shown) [Compound 2912] is 2.2-fold lower in IC50: 90 nM for the first, 40 nM for the second.

Going from `CS(=O)(=O)Nc1ccc(Oc2cc(COP(=O)(N3CC3)N3CC3)ccc2[N+](=O)[O-])cc1` [Compound 2946] to `CN(C)C(=O)c1ccc(Oc2cc(COP(=O)(N3CC3)N3CC3)ccc2[N+](=O)[O-])cc1` [Compound 2941], the IC50 falls from 30 nM to 4 nM (7.5-fold). The second is the more potent here.

Compared with `O=[N+]([O-])c1ccc(COP(=O)(N2CC2)N2CC2)cc1Oc1cccc2ccccc12` [Compound 2966], `O=[N+]([O-])c1ccc(COP(=O)(N2CC2)N2CC2)cc1Oc1ccc2ccccc2c1` [Compound 2968] is 50-fold lower in IC50: 200 nM for the first, 4 nM for the second.

Compared with `CC(OP(=O)(N1CC1)N1CC1)c1ccc([N+](=O)[O-])c(Oc2ccc3cnn(C)c3c2)c1` (stereo not shown) [Compound 2917], `Cn1ncc2ccc(Oc3cc(COP(=O)(N4CC4)N4CC4)ccc3[N+](=O)[O-])cc21` [Compound 2918] is 6.7-fold lower in IC50: 20 nM for the first, 3 nM for the second. The second is the more potent here.

Going from `CCOC(=O)c1ccc(Oc2cc(COP(=O)(N3CC3)N3CC3)ccc2[N+](=O)[O-])cc1` [Compound 2876] to `O=[N+]([O-])c1ccc(COP(=O)(N2CC2)N2CC2)cc1Oc1ccc2ocnc2c1` [Compound 2915], the IC50 rises from 3 nM to 90 nM (30-fold). The first is the more potent here.

`CC(OP(=O)(N1CC1)N1CC1)c1ccc([N+](=O)[O-])c(Oc2ccc3ncsc3c2)c1` (stereo not shown) [Compound 2900] and `Cc1ccc(Oc2cc(C(C)OP(=O)(N3CC3)N3CC3)ccc2[N+](=O)[O-])cn1` (stereo not shown) [Compound 2891] are within 1.5-fold of each other in IC50: 40 nM for the first, 30 nM for the second.

Going from `CC(OP(=O)(N1CC1)N1CC1)c1ccc([N+](=O)[O-])c(Oc2ccc3c(c2)OCO3)c1` (stereo not shown) [Compound 2866] to `CC(OP(=O)(N1CC1)N1CC1)c1ccc([N+](=O)[O-])c(Oc2ccc(Cl)cc2)c1` (stereo not shown) [Compound 2860], the IC50 falls from 20 nM to 10 nM (2-fold).

First: CN(C)C(=O)c1ccccc1Oc1cc(COP(=O)(N2CC2)N2CC2)ccc1[N+](=O)[O-] [Compound 2938]
Second: O=[N+]([O-])c1ccc(COP(=O)(N2CC2)N2CC2)cc1Oc1cccc2ncccc12 [Compound 2967]
The IC50 of the first is 25-fold higher: 2500 nM for the first, 100 nM for the second.

Going from `CC(OP(=O)(N1CC1)N1CC1)c1ccc([N+](=O)[O-])c(O/N=C(\C#N)c2ccccc2)c1` (stereo not shown) [Compound 2947] to `C/C(=N\Oc1cc(C(C)OP(=O)(N2CC2)N2CC2)ccc1[N+](=O)[O-])c1ccccc1` (stereo not shown) [Compound 2961], the IC50 rises from 200 nM to 2700 nM (14-fold).

Going from `CC(OP(=O)(N1CC1)N1CC1)c1cc(Oc2ccccc2)c([N+](=O)[O-])cc1F` (stereo not shown) [Compound 2846] to `Cc1ccc(Oc2cc(C(C)OP(=O)(N3CC3)N3CC3)ccc2[N+](=O)[O-])cc1` (stereo not shown) [Compound 3030], the IC50 falls from 60 nM to 20 nM (3-fold).

Going from `CC(OP(=O)(N1CC1)N1CC1)c1ccc([N+](=O)[O-])c(Oc2cccc(S(C)(=O)=O)c2)c1` (stereo not shown) [Compound 2950] to `CNC(=O)c1cccc(Oc2cc(C(C)OP(=O)(N3CC3)N3CC3)ccc2[N+](=O)[O-])c1` (stereo not shown) [Compound 2884], the IC50 falls from 40 nM to 10 nM (4-fold). The second is the more potent here.

`CC(OP(=O)(N1CC1)N1CC1)c1ccc([N+](=O)[O-])c(Oc2cccc(C(=O)N3CCCCC3)c2)c1` (stereo not shown) [Compound 2982] and `CC(OP(=O)(N1CC1)N1CC1)c1ccc([N+](=O)[O-])c(Oc2cccc(C(=O)N3CCCC3)c2)c1` (stereo not shown) [Compound 2984] are within 1.5-fold of each other in IC50: 4 nM for the first, 5 nM for the second.

Going from `O=C(c1cccc(Oc2cc(COP(=O)(N3CC3)N3CC3)ccc2[N+](=O)[O-])c1)N1CCCCC1` [Compound 2983] to `O=C(c1cccc(Oc2cc(COP(=O)(N3CC3)N3CC3)ccc2[N+](=O)[O-])c1)N1CCOCC1` [Compound 2973], the IC50 rises from 4 nM to 20 nM (5-fold).

Compared with `CC(OP(=O)(N1CC1)N1CC1)c1ccc([N+](=O)[O-])c(Oc2nc3ccccc3s2)c1` (stereo not shown) [Compound 2878], `CC(OP(=O)(N1CC1)N1CC1)c1ccc([N+](=O)[O-])c(Oc2cccc3cnccc23)c1` (stereo not shown) [Compound 2945] is 88-fold lower in IC50: 4400 nM for the first, 50 nM for the second. The second is the more potent here.

Compared with `CC(OP(=O)(N1CC1)N1CC1)c1ccc([N+](=O)[O-])c(Oc2ccc(C(=O)N(C)c3ccccc3)cc2)c1` (stereo not shown) [Compound 2978], `CC(OP(=O)(N1CC1)N1CC1)c1ccc([N+](=O)[O-])c(Oc2cccc(C(=O)N(C)c3ccccc3)c2)c1` (stereo not shown) [Compound 2992] is 2-fold higher in IC50: 2 nM for the first, 4 nM for the second. The first is the more potent here.

First: CC(OP(=O)(N1CC1)N1CC1)c1ccc([N+](=O)[O-])c(Oc2cncnc2)c1 (stereo not shown) [Compound 2925]
Second: CC(OP(=O)(N1CC1)N1CC1)c1ccc([N+](=O)[O-])c(Oc2ccc(C(C)(C)C)cc2)c1 (stereo not shown) [Compound 3034]
The IC50 of the first is 5-fold higher: 40 nM for the first, 8 nM for the second.

Going from `O=[N+]([O-])c1ccc(COP(=O)(N2CC2)N2CC2)cc1Oc1cnc2ccccc2c1` [Compound 2969] to `O=[N+]([O-])c1ccc(COP(=O)(N2CC2)N2CC2)cc1Oc1ccc2ncccc2c1` [Compound 2971], the IC50 rises from 2 nM to 3 nM (1.5-fold). The first is the more potent here.

Going from `CC(OP(=O)(N1CC1)N1CC1)c1ccc([N+](=O)[O-])c(Oc2ccc(Cl)cc2Cl)c1` (stereo not shown) [Compound 2864] to `CC(OP(=O)(N1CC1)N1CC1)c1ccc([N+](=O)[O-])c(Oc2ccc(-c3ccc(Cl)cc3)cc2)c1` (stereo not shown) [Compound 3041], the IC50 rises from 20 nM to 50 nM (2.5-fold). The first is the more potent here.

`CC(OP(=O)(N1CC1)N1CC1)c1ccc([N+](=O)[O-])c(Oc2cccc(C(=O)N3CCOCC3)c2)c1` (stereo not shown) [Compound 2972] and `CNC(=O)c1ccc(Oc2cc(C(C)OP(=O)(N3CC3)N3CC3)ccc2[N+](=O)[O-])cc1` (stereo not shown) [Compound 2909] are the same in IC50: 10 nM for the first, 10 nM for the second.

Going from `C/C(=N\Oc1cc(COP(=O)(N2CC2)N2CC2)ccc1[N+](=O)[O-])c1ccccc1` [Compound 2949] to `Cc1ccccc1-c1ccc(Oc2cc(C(C)OP(=O)(N3CC3)N3CC3)ccc2[N+](=O)[O-])cc1` (stereo not shown) [Compound 3032], the IC50 falls from 400 nM to 3 nM (130-fold).

For `CC(OP(=O)(N1CC1)N1CC1)c1ccc([N+](=O)[O-])c(Oc2ccc(NS(=O)(=O)C(F)(F)F)cc2)c1` (stereo not shown) [Compound 2913], the IC50 was 70 nM.
